# According to ChEMBL document CHEMBL1140197, “Synthesis, characterization and antibacterial activity of cobalt(III) complexes with pyridine-amide ligands” (Eur J Med Chem, 2008):
# How the values were obtained:
# [1] = Cytotoxicity against HEK cells assessed as cell viability at 0.73 to 1500 ug/mL after 48 hrs by MTT assay; assay type: cell-based; conditions: human, hek293, 48 h
# Pseudomonas aeruginosa [2] = experiment: Antibacterial activity against Pseudomonas aeruginosa MTCC 1688 after 16 hrs by microbroth dilution method; assay type: functional, organism-based
# Raoultella planticola = experiment: Antibacterial activity against Klebsiella planticola MTCC 2272 after 16 hrs by microbroth dilution method; assay type: functional, organism-based
# Shigella flexneri = experiment: Antibacterial activity against Shigella flexneri MTCC 1457 after 16 hrs by microbroth dilution method; assay type: functional, organism-based
# Escherichia coli = experiment: Antibacterial activity against clinical isolate resistant Escherichia coli after 16 hrs by microbroth dilution method; assay type: functional, organism-based
# Proteus vulgaris = experiment: Antibacterial activity against clinical isolate resistant Proteus vulgaris after 16 hrs by microbroth dilution method; assay type: functional, organism-based
# Pseudomonas aeruginosa [3] = experiment: Antibacterial activity against clinical isolate resistant Pseudomonas aeruginosa after 16 hrs by microbroth dilution method; assay type: functional, organism-based
Sequence,Activity [1],MIC (Pseudomonas aeruginosa [2]) [µg/mL],MIC (Raoultella planticola) [µg/mL],MIC (Shigella flexneri) [µg/mL],MIC (Escherichia coli) [µg/mL],MIC (Proteus vulgaris) [µg/mL],MIC (Pseudomonas aeruginosa [3]) [µg/mL]
GENTAMICIN [listing 1 of 2 here],Active,,,,,,
GENTAMICIN [listing 2 of 2 here],,1.46,1.46,1.46,11,187,5.5
